Columns and labels:
Experiment in all cases: relative viability (nuclei count vs DMSO), 5 days (fraction); higher = more cells survive
[1] = compound: CN[C@@H]1C[C@H]2O[C@@](C)([C@@H]1OC)n1c3ccccc3c3c4c(c5c6ccccc6n2c5c31)C(=O)NC4 [Staurosporine] + CC1(C)CCC(c2ccc(Cl)cc2)=C(CN2CCN(c3ccc(C(=O)NS(=O)(=O)c4ccc(N[C@H](CCN5CCOCC5)CSc5ccccc5)c(S(=O)(=O)C(F)(F)F)c4)cc3)CC2)C1 [Navitoclax] (partner 0.5 µM)
In short: (§1)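 Nuclei were stained with Hoechst during a one-step fixation (final 0.05% Triton X-100, 1% formaldehyde, 1 ug/ml Hoechst) carried out 5 days after dosing, then counted on 4× images. The cells, lung cancer lines in 1536-well plates, had been dosed by pin tool the day after seeding with one drug alone or a fixed anchor-drug dose plus five library-drug doses (not always all listed) in √10 steps. Relative viability is the nuclei count in treated wells divided by that in vehicle wells, and each value is the median of duplicate plates.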

[2] = compound: O=c1[nH]cc(F)c(=O)[nH]1 [5-Fluorouracil] + CC(=O)c1c(C)c2cnc(Nc3ccc(N4CCNCC4)cn3)nc2n(C2CCCC2)c1=O [Palbociclib] (partner 0.5 µM)
In short: as §1

[3] = compound: O=c1[nH]cc(F)c(=O)[nH]1 [5-Fluorouracil] + CCNC(=O)c1noc(-c2cc(C(C)C)c(O)cc2O)c1-c1ccc(CN2CCOCC2)cc1 [Luminespib] (partner 0.01 µM)
In short: as §1

[4] = compound: O=c1[nH]cc(F)c(=O)[nH]1 [5-Fluorouracil] + CS(=O)(=O)CCNCc1ccc(-c2ccc3ncnc(Nc4ccc(OCc5cccc(F)c5)c(Cl)c4)c3c2)o1 [Lapatinib] (partner 2 µM)
In short: as §1

| Cell Line | relative viability ([1]; first compound 0.005 µM) | relative viability ([1]; first compound 0.05 µM) | relative viability ([1]; first compound 0.1581 µM) | relative viability ([1]; first compound 0.5 µM) | relative viability ([2]; first compound 0.02 µM) | relative viability ([2]; first compound 0.2 µM) | relative viability ([2]; first compound 0.6325 µM) | relative viability ([2]; first compound 2 µM) | relative viability ([3]; first compound 0.02 µM) | relative viability ([3]; first compound 0.2 µM) | relative viability ([3]; first compound 0.6325 µM) | relative viability ([3]; first compound 2 µM) | relative viability ([4]; first compound 0.02 µM) | relative viability ([4]; first compound 0.2 µM) | relative viability ([4]; first compound 0.6325 µM) | relative viability ([4]; first compound 2 µM) | relative viability ([1]; first compound 0.01581 µM) |
| --- | --- | --- | --- | --- | --- | --- | --- | --- | --- | --- | --- | --- | --- | --- | --- | --- | --- |
| NCI-H1915 | 0.829 | 0.449 | 0.369 | 0.26 | 0.485 | 0.522 | 0.498 | 0.383 | 0.658 | 0.855 | 0.699 | 0.597 | 0.908 | 0.999 | 0.97 | 0.724 |  |
| NCI-H1944 | 1.08 | 0.763 | 0.562 | 0.359 | 0.306 | 0.319 | 0.252 | 0.214 | 0.73 | 0.625 | 0.3 | 0.185 | 0.843 | 0.908 | 0.474 | 0.268 |  |
| NCI-H1975 | 0.611 | 0.286 | 0.215 | 0.132 | 0.671 | 0.768 | 0.355 | 0.189 | 0.302 | 0.217 | 0.397 | 0.237 | 0.879 | 1.09 | 0.495 | 0.333 | 0.297 |
| NCI-H1993 | 1.04 | 0.54 | 0.44 | 0.435 | 0.681 | 1.19 | 0.469 | 0.494 | 0.768 | 0.682 | 0.664 | 0.595 | 0.706 | 0.765 | 0.65 | 0.591 | 0.645 |
| NCI-H2009 | 0.42 | 0.189 | 0.19 | 0.0825 | 0.196 | 0.229 | 0.169 | 0.213 | 1.18 | 1.12 | 1.12 | 0.645 | 0.941 | 0.919 | 0.764 | 0.812 | 0.38 |
| NCI-H2023 | 0.715 | 0.257 | 0.159 | 0.0924 | 0.397 | 0.155 | 0.0836 | 0.102 | 0.844 | 0.154 | 0.106 | 0.0768 | 0.719 | 0.234 | 0.0995 | 0.113 | 0.598 |
| NCI-H2085 | 0.757 | 0.541 | 0.415 | 0.366 | 0.434 | 0.504 | 0.473 | 0.5 | 0.418 | 0.456 | 0.445 | 0.349 | 0.654 | 0.957 | 0.923 | 0.704 | 0.583 |
| NCI-H2087 | 0.744 | 0.374 | 0.133 | 0.103 | 0.234 | 0.243 | 0.164 | 0.179 | 0.168 | 0.162 | 0.16 | 0.142 | 1.03 | 1.22 | 0.748 | 0.548 | 0.679 |
| NCI-H2126 | 0.915 | 0.461 | 0.433 | 0.339 | 0.348 | 0.29 | 0.299 | 0.274 | 0.788 | 0.371 | 0.302 | 0.292 | 0.801 | 0.444 | 0.321 | 0.281 | 0.624 |
| NCI-H2170 | 0.708 | 0.421 | 0.219 | 0.189 | 0.407 | 0.368 | 0.268 | 0.249 | 0.507 | 0.541 | 0.503 | 0.3 | 0.282 | 0.317 | 0.273 | 0.27 | 0.376 |
| NCI-H2228 | 0.6 | 0.165 | 0.127 | 0.0586 | 0.79 | 0.733 | 0.509 | 0.356 | 0.158 | 0.156 | 0.145 | 0.18 | 1.13 | 1.06 | 0.687 | 0.505 | 0.399 |
| NCI-H2347 | 0.854 | 0.274 | 0.284 | 0.225 | 0.455 | 0.381 | 0.395 | 0.326 | 0.41 | 0.72 | 0.41 | 0.411 | 1.07 | 0.796 | 0.48 | 0.436 | 0.524 |
| NCI-H2405 | 0.132 | 0.0985 | 0.0939 | 0.0834 | 0.541 | 0.579 | 0.529 | 0.48 | 0.707 | 0.786 | 0.676 | 0.693 | 1.06 | 1.22 | 1.06 | 0.63 | 0.061 |
| NCI-H3122 | 1.04 | 0.993 | 0.672 | 0.223 | 0.216 | 0.174 | 0.175 | 0.174 | 0.104 | 0.09 | 0.095 | 0.088 | 0.994 | 0.903 | 0.338 | 0.246 | 0.46 |
| PC-3 [JPC-3] | 0.933 | 0.552 | 0.485 | 0.406 | 0.562 | 0.582 | 0.576 | 0.509 | 0.66 | 0.753 | 0.621 | 0.524 | 0.479 | 0.48 | 0.485 | 0.476 |  |
| PC-14 | 0.901 | 0.887 | 0.0852 | 0.053 | 0.585 | 0.504 | 0.435 | 0.311 | 0.117 | 0.151 | 0.171 | 0.191 | 0.305 | 0.433 | 0.327 | 0.292 | 0.562 |
| RERF-LC-KJ | 1.14 | 0.479 | 0.244 | 0.236 | 1.06 | 0.991 | 0.891 | 0.677 | 1.42 | 1.24 | 1.22 | 0.904 | 0.903 | 0.824 | 0.846 | 0.704 | 0.665 |
| SK-LU-1 | 0.323 | 0.131 | 0.151 | 0.059 | 0.398 | 0.388 | 0.382 | 0.373 | 0.196 | 0.216 | 0.231 | 0.193 | 0.904 | 0.956 | 0.846 | 0.704 | 0.115 |

Reference: the supplement of paper PMC10307832
